From patent US20060063711A1, “Use of sglt homolog” (priority 2002, published 2006)

Target: T1, human SGLT2 (hSGLT2) (Homo sapiens, UniProt P31639)
T1 construct: expressed in transfected cells; host or cells: CHO cells
T1 sequence (P31639 1-672): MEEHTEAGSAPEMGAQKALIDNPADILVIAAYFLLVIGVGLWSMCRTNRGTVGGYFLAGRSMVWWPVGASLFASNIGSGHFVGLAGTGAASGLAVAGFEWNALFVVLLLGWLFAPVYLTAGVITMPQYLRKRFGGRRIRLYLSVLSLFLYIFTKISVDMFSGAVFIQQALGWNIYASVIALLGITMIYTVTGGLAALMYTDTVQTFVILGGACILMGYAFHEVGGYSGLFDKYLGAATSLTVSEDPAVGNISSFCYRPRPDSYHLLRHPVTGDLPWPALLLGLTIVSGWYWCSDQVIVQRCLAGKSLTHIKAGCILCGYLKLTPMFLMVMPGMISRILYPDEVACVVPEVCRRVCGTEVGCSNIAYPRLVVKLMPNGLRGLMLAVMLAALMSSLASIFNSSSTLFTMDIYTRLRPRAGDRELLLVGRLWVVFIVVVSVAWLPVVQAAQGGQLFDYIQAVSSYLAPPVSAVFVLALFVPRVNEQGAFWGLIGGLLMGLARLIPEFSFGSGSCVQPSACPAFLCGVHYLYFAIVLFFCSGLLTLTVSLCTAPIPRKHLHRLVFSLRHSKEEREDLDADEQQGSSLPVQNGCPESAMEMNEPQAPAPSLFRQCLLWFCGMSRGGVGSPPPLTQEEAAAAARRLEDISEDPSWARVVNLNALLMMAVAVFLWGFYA
Test: α-methyl glucose uptake in CHO cells expressing hSGLT2
Type: cell-based
Conditions: control = NMDG without NaCl
Description: The cells were plated on 100 μl of DMEM containing 10% FBS charged in a 96-well plate in a cell density of 1×10^5 cells/well, followed by culturing overnight at 37° C. […] The buffer solution was removed and replaced with 90 μl of the same buffer solution or the buffer solution containing NaCl or NaCl+Phlorizin (Sigma) in place of N-Methyl-D-Glucamine (NMDG). After one-hour incubation with 10 μl of 1 mM α-methyl glucose (containing 0.02 μCi of [^14C]-α-Methyl Glucose (Amersham Pharmacia Biotech)) per well, the cells were washed 3 times with 200 μl of chilled PBS buffer. The radioactivity of ^14C taken up into the cells was counted with 100 μl of a liquid scintillator added per well.

O=C(CCc1ccc(O)cc1)c1c(O)cc(O)cc1O[C@@H]1O[C@H](CO)[C@@H](O)[C@H](O)[C@H]1O [phlorizin]
Uptake of α-Methyl Glucose (% based on Control Group) (NaCl + 3 μM phlorizin): 139 ± 23%
Uptake of α-Methyl Glucose (% based on Control Group) (NaCl + 100 μM phlorizin): 48 ± 8%
